How the values were obtained:
Format in all cases: cell-based, human
[1] = tested on: Coronary artery smooth muscle cells (CASM3C system); assay: BioMAP CASM3C system, Example 832
Protocol: (§1) The BioMAP platform (BioMAP® Diversity PLUS Panel from Eurofins) is an in vitro phenotypic profiling technology that screened the compounds of the present disclosure (hereafter indicated as test agents) in human primary cell-based systems modelling complex tissue and disease states. The BioMAP assays were performed using the Eurofin's BioMAP Technology Platform as (see references 1 to 13 in the example 824 section) to model different diseases on primary cell-based model systems. These systems consisted of either single primary cell types or co-culture cells. Adherent cell types were cultured or co-cultured in 96 or 384-well plates until confluence followed by the addition of compounds prepared in DMSO at a final concentration of ≤0.1%. In each cell-based system, primary cells from heathy donors (2-6 donors) were pooled and treated with compounds at 1 and 10 μM dose 1 h prior to stimulation and remain in culture as indicated in
(§2) Example 825, Example 826, Example 827, Example 828, Example 829, Example 830, Example 831, Example 832, Example 833, Example 834, Example 835, Example 836 and Example 837. For on the BioMAP® Diversity PLUS® Panel, please see the following references, which are incorporate herein.
Following the general procedure as described in Example 824, Coronary artery smooth muscle cells (CASM3C system) were treated with IL-1β, TNFα and IFNγ for 24 h in the presence or absence of the compounds to model cardiovascular inflammation and restenosis. Biomarker reads out were; MCP-1, VCAM-1, Throbomodulin, Tissue factor, uPAR, IL-8, MIG, HLA-DR, IL-6, LDLR, M-CSF, PAI-1, Proliferation, SAA and SRB

[2] = tested on: Keratinocytes co-cultured with dermal fibroblast (KF3CT system); assay: BioMAP KF3CT system, Example 834
Protocol: as §1, §2
Following the general procedure as described in Example 824, Keratinocytes were co-cultured with dermal fibroblast (KF3CT system) and treated with […], TNFα, IFNγ and TGFβ for 24 h in the presence or absence of the compounds to model psoriasis, dermatitis and skin biology. Biomarkers read out were; MCP-1, ICAM-1, IP-10, IL-8, MIG, IL-1α, MMP-9, PAI-1, SRB, TIMP-2, uPA.

[3] = tested on: Peripheral blood mononuclear cells co-cultured with venular endothelial cells (HUVEC) (LPS system); assay: BioMAP LPS system, Example 827
Protocol: as §1, §2
Following the general procedure as described in Example 824, Peripheral blood mononuclear cells co-cultured with venular endothelial cells (HUVEC) (LPS system) were stimulated with LPS for 24 h in the presence or absence of compounds, to model cardiovascular disease and chronic inflammation. Biomarkers read out were; MCP-1, VCAM-1, Thrombomodulin, Tissue Factor, CD40, E-selectin, CD69, IL-8, IL-1α, M-CSF, sPGE2, SRB and TNFα.

[4] = tested on: Dermal fibroblasts (HDF3CGF system); assay: BioMAP HDF3CGF system, Example 833
Protocol: as §1, §2
Following the general procedure as described in Example 824, Dermal fibroblasts (HDF3CGF system) were treated with IL-1β, TNFα and IFNγ, EGF, bFGF and PDGF-BB for 24 h in the presence or absence of the compounds to model fibrosis and chronic inflammation. Biomarkers read out were; MCP-1, VCAM-1, ICAM-1, Collagen-I, Collagen-III, IP-10, I-TAC, IL-8, MIG, EGFR, M-CSF, MMP-1, PAI-1, SRB, TIMP-1, TIMP-2 and proliferation was measured for 72 h.

[5] = tested on: Peripheral blood mononuclear cells co-cultured with venular endothelial cells (Sag system); assay: BioMAP Sag system, Example 828
Protocol: as §1, §2
Following the general procedure as described in Example 824, Peripheral blood mononuclear cells were co-cultured with venular endothelial cells and treated with soluble antigen (T-cell ligands) (Sag system) in the presence or absence of compounds to model autoimmune and chronic inflammation. Biomarkers read out were; MCP-1, CD38, CD40, E-selectin, CD69, IL-8, MIG, PBMC cytotoxicity, Proliferation and SRB.

[6] = tested on: Venular Endothelial cells (HUVEC) (3C system); assay: BioMAP 3C system, Example 825
Protocol: as §1, with “In each cell-based system, primary cells from heathy donors (2-6 donors) were pooled and treated with compounds at 1 and 10 μM dose 1 h prior to stimulation and remain in culture as indicated in” left out
Following the general procedure as described in Example 824, Venular Endothelial cells (HUVEC) (3C system) were treated with IL-1β, TNFα, IFNγ for 24 h to model Th1 driven cardiovascular and chronic inflammation diseases in the presence or absence of the compounds. Biomarker read out were; Tissue Factor, ICAM-1, E-selectin, uPAR (CD87), IL-8, […], HLA-DR, proliferation and SRB (Sulfo-rhodamine i.e. staining for protein content).

[7] = tested on: Venular endothelial cells co-cultured with macrophages (Mphg system); assay: BioMAP Mphg system, Example 836
Protocol: as §1, §2
Following the general procedure as described in Example 824, Venular endothelial cells co-cultured with macrophages (Mphg system) and treated with TLR2 ligand for 24 h in the presence or absence of the compounds to mimic cardiovascular inflammation, restenosis and chronic inflammation. Biomarkers read out were; MCP-1, MIP-1α, VCAM-1, CD40, E-selectin, CD69, IL-8, IL-1α, M-CSF, sIL-10 and SRB.

[8] = Example 988, concentration tested 1 uM
[9] = procedure of Example 827, concentration tested 10 uM
[10] = procedure of Example 825, concentration tested 1 uM
[11] = procedure of Example 836, 10 uM

## CCOP1(=O)OCC(C)(C)[C@H](C(=O)NCCC(=O)NCCSC(=O)CCC(=O)O)O1 (some centres unmarked) [Compound 61]
[1]; 1 uM
  % decrease in Tissue Factor: ≥10%
  % decrease in VCAM-1: ≥10%
[1]; 10 uM
  % decrease in LDLR: ≥10%
  % decrease in Thrombomodulin: ≥20%
[2]; 1 uM (Example 927)
  % decrease in MCP-1: ≥20%
[2]; 1 uM (Example 928)
  % decrease in MCP-1: ≥20%
[3]; [8]
  % decrease in M-CSF: ≥10%
[3]; LPS system, 1 uM
  % decrease in IL-1α: ≥10%
  % decrease in M-CSF: ≥10%
  % decrease in sTNFα: ≥10%
[3]; LPS system, 10 uM
  % decrease in IL-8: ≥20%
  % decrease in Tissue Factor: ≥10%
  % increase in sTNFα: ≥10%
[3]; concentration tested 1 uM
  % decrease in IL-1α: ≥10%
  % decrease in sTNFα: ≥10%
[3]; concentration tested 10 uM
  % decrease in Tissue Factor: ≥10%
  % increase in sTNFα: ≥10%
[3]; [9]
  % decrease in IL-8: ≥20%
[4]; 10 uM
  % decrease in TIMP-1: ≥10%
[5]; Sag system, 10 uM
  % increase in PBMC Cytotoxicity: ≥10%
[5]; concentration tested 10 uM
  % increase in PBMC Cytotoxicity: ≥10%
[6]; 3C system, 1 uM
  % decrease in IL-8: ≥10%
[6]; [10]
  % decrease in IL-8: ≥10%
[7]; [11]
  % decrease in α-SMA: ≥10%
  % increase in MMP-1: ≥10%

## COC(=O)CCC(=O)SCCNC(=O)CCNC(=O)[C@@H]1OC(=O)OCC1(C)C [Compound 451]
[1]; 1 uM
  % decrease in Thrombomodulin: ≥10%
  % decrease in VCAM-1: ≥10%
[1]; 10 uM
  % decrease in HLA-DR: ≥10%
  % increase in IL-6: ≥10%
[2]; 1 uM (Example 927)
  % decrease in MCP-1: ≥10%
[2]; 1 uM (Example 928)
  % decrease in MCP-1: ≥10%
[3]; [8]
  % decrease in M-CSF: ≥20%
[3]; LPS system, 1 uM
  % decrease in IL-1α: ≥10%
  % decrease in M-CSF: ≥20%
  % decrease in Thrombomodulin: ≥10%
[3]; LPS system, 10 uM
  % decrease in IL-8: ≥20%
  % decrease in Tissue Factor: ≥10%
[3]; concentration tested 1 uM
  % decrease in IL-1α: ≥10%
  % decrease in Thrombomodulin: ≥10%
[3]; concentration tested 10 uM
  % decrease in Tissue Factor: ≥10%
[3]; [9]
  % decrease in IL-8: ≥20%
[4]; 1 uM
  % decrease in Collagen III: ≥10%
  % decrease in TIMP-1: ≥10%
[5]; Sag system, 10 uM
  % decrease in CXCL8/IL-8: ≥10%
[5]; concentration tested 10 uM
  % decrease in CXCL8/IL-8: ≥10%
[6]; 3C system, 1 uM
  % decrease in IL-8: ≥10%
[6]; 3C system, 10 uM
  % increase in Proliferation (HUVEC): ≥20%
[6]; concentration tested 10 uM
  % increase in Proliferation (HUVEC): ≥20%
[6]; [10]
  % decrease in IL-8: ≥10%
[7]; procedure of Example 836, 1 uM
  % decrease in α-SMA: ≥10%
[7]; [11]
  % decrease in VCAM-1: ≥10%
  % increase in MMP-1: ≥10%

## COC(=O)CCC(=O)SCCNC(=O)CCNC(=O)[C@@H]1OC(C)(CC(=O)OC)OCC1(C)C (some centres unmarked) [Compound 633]
[1]; 1 uM
  % decrease in HLA-DR: ≥10%
  % decrease in LDLR: ≥10%
  % decrease in M-CSF: ≥10%
  % decrease in Thrombomodulin: ≥10%
  % decrease in Tissue Factor: ≥10%
  % decrease in VCAM-1: ≥10%
  % decrease in uPAR: ≥10%
[1]; 10 uM
  % decrease in IL-8: ≥10%
[2]; 1 uM (Example 927)
  % decrease in MCP-1: ≥10%
[2]; 1 uM (Example 928)
  % decrease in MCP-1: ≥10%
[3]; [8]
  % decrease in M-CSF: ≥10%
[3]; LPS system, 1 uM
  % decrease in IL-8: ≥20%
  % decrease in M-CSF: ≥10%
  % decrease in Thrombomodulin: ≥20%
  % decrease in Tissue Factor: ≥10%
  % decrease in sPGE2: ≥10%
  % decrease in sTNFα: ≥10%
[3]; LPS system, 10 uM
  % increase in sTNFα: ≥10%
[3]; concentration tested 1 uM
  % decrease in Thrombomodulin: ≥20%
  % decrease in Tissue Factor: ≥10%
  % decrease in sTNFα: ≥10%
[3]; concentration tested 10 uM
  % increase in sTNFα: ≥10%
[3]; procedure of Example 827, concentration tested 1 uM
  % decrease in IL-8: ≥20%
[4]; 1 uM
  % decrease in EGFR: ≥10%
  % decrease in TIMP-1: ≥20%
  % decrease in TIMP-2: ≥10%
[4]; 10 uM
  % increase in 72 Hour Proliferation: ≥10%
  % increase in PAI-I: ≥10%
[6]; 3C system, 1 uM
  % increase in Proliferation (HUVEC): ≥20%
[6]; 3C system, 10 uM
  % decrease in IL-8: ≥20%
[6]; concentration tested 1 uM
  % increase in Proliferation (HUVEC): ≥20%
[6]; procedure of Example 825, concentration tested 10 uM
  % decrease in IL-8: ≥20%
[7]; procedure of Example 836, 1 uM
  % decrease in VCAM-1: ≥10%
[7]; [11]
  % decrease in α-SMA: ≥10%

Reference: US12037354B2, “Cyclic pantetheine derivatives and uses thereof” (VectivBio Comet AG, priority 2018, dated 2024)
